In assay [1] the target is T1, α4β1 integrin (Homo sapiens, UniProt P05556+P13612).
T1 construct: Harvested Ramos cells; endogenous in cells; host or cells: Ramos cells
The assay is described as follows: Antagonism of binding of CS1 peptide to α4β1 integrin (calcein-labelled Ramos cell adhesion to biotinylated CS1 plate). It counts as cell-based. The conditions noted are these: Ramos cells. The method, then: In brief, 100 μL/well of a solution of biotinylated CS1 peptide (1 mg/100 mL of phosphate buffered saline (PBS)) was incubated in a NeutrAvidin plate (Pierce) for 1 h at room temperature. The plate was then washed 3× with distilled water and treated with 200 μL of blocking buffer (3% BSA in PBS) for at least 4 h. Blocked plates were washed as above. Harvested Ramos cells (10^7/mL) were resuspended in PBS containing 10 μL of calcein AM/mL and incubated 30 min in the dark. This suspension was diluted with 45 mL PBS and the cells harvested by centrifugation and aspiration. The cells were resuspended in binding buffer (˜5×10^5/mL). If cell lysis was to be monitored ethidium homodimer was added to the buffer to a final concentration of 5 μM. A solution (10 μL) of compound to be tested or control peptide was added to appropriate wells followed by 90 μL of the cell suspension. The plate was incubated at 37° C. for 1 h. […] Otherwise, the plate was washed 3×, 50 μL of lysis buffer was added to each well, the plate rocked in the dark for 10 min, and the fluorescence monitored at 485 nm excitation and 535 nm emission.

Assay [2] has as its target neurokinin-1 receptor (Homo sapiens, UniProt P25103). The assay is described as follows: Tachykinin antagonism assay: inhibition of Substance P-induced calcium mobilization (FLIPR) in U373 MG cells. It counts as cell-based. The conditions noted are these: Substance P 1 nM. The method, then: An assay measuring the ability of compounds 1–50 to antagonize binding of substance P peptide to its receptor neurokinin-1 was performed. Substance P is known to act upon cells via the mobilization of calcium (Bordey et al., Glia 11: 277–283, 1994). The compounds were assessed for their ability to inhibit the action of Substance P with the use of a Fluorescent Imaging Plate Reader (FLIPR) from Molecular Devices (Shroeder et al., J. Biomol. Screening 1: 75–80, 1996; U.S. Pat. No. 5,112,134; U.S. Pat. No. 4,968,148). […] This dye is similar to Fluo-3, Fluo-4, and Calcium Green dyes used by other researchers (Lin et al., Biotechniques 26: 318–326, 1999) in that it increases in fluorescence in the presence of calcium; the Molecular Devices version is preferable because the cells need not be washed following staining with the dye. […] Substance P was added in Hank's salt solution with 1% BSA to give a final concentration of 1 nM and the resultant change in fluorescence intensity was monitored for thirty seconds with an excitation wavelength of 480 nm and an emission of 515 nm. Some wells were maintained as controls which were not incubated with any compound, and the peak fluorescence readings resulting from the wells which received compounds were compared to these control wells in order to determine the degree of inhibition.
On the technique in general: A change in cytosolic calcium serves as a functional read-out for many receptors and channels.

SMILES strings stand for the structures.

T1 sequence (P13612 34-1032): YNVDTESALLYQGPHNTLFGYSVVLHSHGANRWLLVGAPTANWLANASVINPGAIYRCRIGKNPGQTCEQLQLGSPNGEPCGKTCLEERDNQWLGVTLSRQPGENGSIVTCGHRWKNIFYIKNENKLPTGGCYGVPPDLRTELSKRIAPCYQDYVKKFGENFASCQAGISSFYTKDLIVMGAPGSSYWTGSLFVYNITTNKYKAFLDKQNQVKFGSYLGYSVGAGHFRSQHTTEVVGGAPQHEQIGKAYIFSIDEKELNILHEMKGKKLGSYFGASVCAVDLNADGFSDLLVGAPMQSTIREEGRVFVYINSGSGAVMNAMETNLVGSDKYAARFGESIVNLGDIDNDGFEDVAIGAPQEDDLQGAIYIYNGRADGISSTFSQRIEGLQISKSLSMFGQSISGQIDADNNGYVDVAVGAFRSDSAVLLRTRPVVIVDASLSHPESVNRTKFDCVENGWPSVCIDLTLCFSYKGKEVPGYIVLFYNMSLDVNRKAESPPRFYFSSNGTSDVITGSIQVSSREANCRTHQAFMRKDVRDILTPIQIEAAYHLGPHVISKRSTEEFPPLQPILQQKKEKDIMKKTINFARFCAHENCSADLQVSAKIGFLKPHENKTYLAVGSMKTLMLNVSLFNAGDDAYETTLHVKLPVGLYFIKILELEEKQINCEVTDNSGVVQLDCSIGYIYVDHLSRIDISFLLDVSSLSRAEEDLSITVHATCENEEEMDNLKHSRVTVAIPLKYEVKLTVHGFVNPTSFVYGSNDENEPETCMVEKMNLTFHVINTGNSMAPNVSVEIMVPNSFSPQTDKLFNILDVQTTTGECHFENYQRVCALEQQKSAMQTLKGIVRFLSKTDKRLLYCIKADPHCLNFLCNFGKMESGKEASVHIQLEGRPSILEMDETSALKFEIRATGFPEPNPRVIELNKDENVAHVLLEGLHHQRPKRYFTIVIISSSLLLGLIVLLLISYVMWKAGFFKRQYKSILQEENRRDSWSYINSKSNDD
T1 sequence (P05556 21-798): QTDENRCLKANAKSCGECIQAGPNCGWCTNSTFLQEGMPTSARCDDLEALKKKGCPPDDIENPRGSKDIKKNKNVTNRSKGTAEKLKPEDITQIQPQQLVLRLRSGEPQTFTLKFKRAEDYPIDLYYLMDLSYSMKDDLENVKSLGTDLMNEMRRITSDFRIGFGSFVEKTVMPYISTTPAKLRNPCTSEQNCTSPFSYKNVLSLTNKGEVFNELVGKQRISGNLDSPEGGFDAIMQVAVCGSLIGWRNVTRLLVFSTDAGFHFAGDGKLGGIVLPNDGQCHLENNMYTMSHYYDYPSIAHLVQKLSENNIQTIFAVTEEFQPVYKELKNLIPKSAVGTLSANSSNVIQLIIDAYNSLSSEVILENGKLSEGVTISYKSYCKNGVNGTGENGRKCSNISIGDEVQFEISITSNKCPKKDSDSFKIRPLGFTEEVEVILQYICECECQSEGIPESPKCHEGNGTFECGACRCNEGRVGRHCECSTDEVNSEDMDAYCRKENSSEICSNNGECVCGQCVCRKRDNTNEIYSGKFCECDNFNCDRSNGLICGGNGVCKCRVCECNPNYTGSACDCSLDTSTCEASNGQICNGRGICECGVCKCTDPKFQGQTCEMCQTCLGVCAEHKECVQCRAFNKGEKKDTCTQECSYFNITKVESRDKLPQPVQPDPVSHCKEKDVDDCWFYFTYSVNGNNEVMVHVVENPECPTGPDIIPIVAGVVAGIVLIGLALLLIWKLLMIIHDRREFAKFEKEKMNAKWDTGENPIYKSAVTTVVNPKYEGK
Sequence of neurokinin-1 receptor (P25103 whole entry): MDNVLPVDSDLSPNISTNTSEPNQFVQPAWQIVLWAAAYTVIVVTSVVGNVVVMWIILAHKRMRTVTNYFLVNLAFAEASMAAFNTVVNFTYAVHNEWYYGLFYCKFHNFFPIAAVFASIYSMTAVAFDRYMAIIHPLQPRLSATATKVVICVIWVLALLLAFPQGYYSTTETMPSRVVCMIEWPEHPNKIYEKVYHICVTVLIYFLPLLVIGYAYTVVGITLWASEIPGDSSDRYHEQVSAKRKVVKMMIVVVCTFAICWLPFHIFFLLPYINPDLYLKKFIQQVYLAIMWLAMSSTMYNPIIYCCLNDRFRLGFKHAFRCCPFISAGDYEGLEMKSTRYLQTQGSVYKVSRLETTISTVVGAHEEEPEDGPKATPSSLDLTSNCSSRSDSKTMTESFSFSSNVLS

For the molecule `O=C1C[C@H](Cc2ccccc2)N2C(=O)[C@H](Cc3ccc(O)cc3)N(CC3CCCCC3)C(=O)C2O1` (stereo partly drawn) [Compound 47], in assay [1], the inhibition (commonly the share of the control response that was lost under treatment) at 100 µM is over 50%.
As to `CC12OC(=O)[C@H](Cc3ccccc3)N1C(=O)[C@H]1CCCN1C2=O` (stereo partly drawn) [Compound 45], the inhibition at 20 µM in assay [2] was over 25%. Further, the inhibition at 100 µM in assay [1] is over 50%.

Source of the values: US7008941B2, “Reverse-turn mimetics and methods relating thereto” (Myriad Genetics, Inc., priority 2001, dated 2006).
